Where two headings read alike, the source gives them in different places.
Key:
[1] = Biopharmaceutical properties of SMS: first pass effect and excretion; format: in vivo; conditions: rat
[2] = Stability of SMS in gastric juices; format: in vitro ADME

## C[C@@H](O)[C@@H]1NC(=O)[C@H](CCCCN)NC(=O)[C@@H](Cc2c[nH]c3ccccc23)NC(=O)[C@H](Cc2ccccc2)NC(=O)[C@@H](NC(=O)[C@H](N)Cc2ccccc2)CSSC[C@@H](C(=O)N[C@H](CO)[C@@H](C)O)NC1=O [SMS, octreotide]
[1]; bile, read-out: excreted as the unchanged drug in the bile
  dose excreted: ~80%
[1]; urine, read-out: excreted as the unchanged drug in the urine
  dose excreted: ~20%
[2]
  stability in gastric juices: extremely stable
